Legend:
[1] = system: control sera (pooled serum of ten healthy LUMC hospital workers; commercial negative donor pooled serum from the Dutch bloodbank); format: binding, human; set-up: Binding of Control serum LUMC to linear peptides / Binding of Control serum Blood-bank to linear peptides / Binding of Control serum LUMC to looped peptides / Binding of Control Serum Blood-Bank to Looped peptides / Binding of Control serum LUMC to linear peptides of the protein M of SARS-CoV Urbani / Binding of Control serum Blood-bank to linear peptides of the protein M of SARS-CoV Urbani / Binding of Control serum LUMC to looped peptides of the protein M of SARS-CoV Urbani / Binding of Control Serum Blood-Bank to Looped peptides of the protein M of SARS-CoV Urbani: unit not given here
[2] = system: antibodies in sera from SARS patients (sera 1a, 1b, 2, 6, 37, 62, London, SARS-yellow, SARS-green); format: binding, human; set-up: Binding of serum 6 to linear peptides of protein X1 of SARS-CoV Urbani / Binding of serum 37 to linear peptides of protein X1 of SARS-CoV Urbani / Binding of serum 6 to looped/cyclic peptide (PEPSCAN-ELISA) / Binding of serum 37 to looped/cyclic peptide (PEPSCAN-ELISA) / Binding of serum 37 to looped/cyclic peptides of protein X1 of SARS-CoV Urbani / Binding of serum 6 to linear peptides of protein X2 / Binding of serum 37 to linear peptides of protein X2 / Binding of serum 37 to looped/cyclic peptides of protein X2 of SARS-CoV Urbani / Binding of serum 6 to linear peptides of protein M of SARS-CoV Urbani / Binding of serum 37 to linear peptides of protein M of SARS-CoV Urbani / Binding of serum 6 to looped/cyclic peptides of protein M of SARS-CoV Urbani / Binding of serum 37 to looped/cyclic peptides of protein M of SARS-CoV Urbani / Binding of serum 6 to linear peptides of protein X3 of SARS-CoV Urbani / Binding of serum 37 to linear peptides of protein X3 of SARS-CoV Urbani / Binding of serum 37 to looped/cyclic peptides of protein X3 of SARS-CoV Urbani / Binding of serum 6 to linear peptides of protein X4 of SARS-CoV Urbani / Binding of serum 37 to linear peptides of protein X4 of SARS-CoV Urbani / Binding of serum 37 to looped/cyclic peptides of protein X4 of SARS-CoV Urbani / Binding of serum 6 to linear peptides of protein X5 of SARS-CoV Urbani / Binding of serum 37 to linear peptides of protein X5 of SARS-CoV Urbani / Binding of serum 37 to looped/cyclic peptides of protein X5 of SARS-CoV Urbani / Binding of serum 6 to linear peptides of protein N of SARS-CoV Urbani / Binding of serum 37 to linear peptides of protein N of SARS-CoV Urbani / Binding of serum 6 to linear peptide (PEPSCAN-ELISA) / Binding of serum 1a to looped/cyclic peptides of protein N of SARS-CoV Urbani / Binding of serum 1b to looped/cyclic peptides of protein N of SARS-CoV Urbani / Binding of serum 2 to looped/cyclic peptides of protein N of SARS-CoV Urbani / Binding of serum 6 to looped/cyclic peptides of protein N of SARS-CoV Urbani / Binding of serum 37 to looped/cyclic peptides of protein N of SARS-CoV Urbani / Binding of serum 62 to looped/cyclic peptides of protein N of SARS-CoV Urbani / Binding of serum London to looped/cyclic peptides of protein N of SARS-CoV Urbani / Binding of serum SARS-green to looped/cyclic peptides of protein N of SARS-CoV Urbani: unit not given here
[3] = system: rabbit serum obtained by immunizing a rabbit with the SARS-CoV strain Frankfurt 1; format: binding; set-up: Binding of a rabbit serum to linear peptides / Binding of a rabbit serum to looped peptides / Rabbit serum linear peptides / Rabbit serum looped peptides / Binding of a rabbit serum to linear peptides of protein N of SARS-CoV Urbani (Rabbit serum linear peptides) / Binding of a rabbit serum to looped/cyclic peptides of protein N of SARS-CoV Urbani (Rabbit serum looped peptides): unit not given here

## IILFLTLIVFTSCEL
[1]
  Binding of Control Serum Blood-Bank to Looped peptides: 0.7
  Binding of Control serum Blood-bank to linear peptides: 0.7
  Binding of Control serum LUMC to linear peptides: 0.9
  Binding of Control serum LUMC to looped peptides: 0.6
[2]
  Binding of serum 1a to linear peptides of protein X4 of SARS-CoV Urbani: 0.8
  Binding of serum 1a to looped/cyclic peptides of protein X4 of SARS-CoV Urbani: 0.7
  Binding of serum 1b to linear peptides of protein X4 of SARS-CoV Urbani: 0.8
  Binding of serum 1b to looped/cyclic peptides of protein X4 of SARS-CoV Urbani: 0.1
  Binding of serum 2 to linear peptides of protein X4 of SARS-CoV Urbani: 0.6
  Binding of serum 2 to looped/cyclic peptides of protein X4 of SARS-CoV Urbani: 0.6
  Binding of serum 6 to linear peptides of protein X4 of SARS-CoV Urbani: 0.5
  Binding of serum 6 to looped/cyclic peptides of protein X4 of SARS-CoV Urbani: 0.5
  Binding of serum 37 to linear peptides of protein X4 of SARS-CoV Urbani: 0.9
  Binding of serum 37 to looped/cyclic peptides of protein X4 of SARS-CoV Urbani: 0.7
  Binding of serum 62 to linear peptides of protein X4 of SARS-CoV Urbani: 0.8
  Binding of serum 62 to looped/cyclic peptides of protein X4 of SARS-CoV Urbani: 0.7
  Binding of serum London to linear peptides of protein X4 of SARS-CoV Urbani: 0.7
  Binding of serum London to looped/cyclic peptides of protein X4 of SARS-CoV Urbani: 0.2
  Binding of serum SARS-green to linear peptides of protein X4 of SARS-CoV Urbani: 0.6
  Binding of serum SARS-green to looped/cyclic peptides of protein X4 of SARS-CoV Urbani: 0.4
  Binding of serum SARS-yellow to linear peptides of protein X4 of SARS-CoV Urbani: 0.7
  Binding of serum SARS-yellow to looped/cyclic peptides of protein X4 of SARS-CoV Urbani: 0.6
[3]
  Rabbit serum linear peptides: 0.8
  Rabbit serum looped peptides: 0.5

## ILLNVPLRGTIVTRP
[1]
  Binding of Control Serum Blood-Bank to Looped peptides of the protein M of SARS-CoV Urbani: 0.5
  Binding of Control serum Blood-bank to linear peptides of the protein M of SARS-CoV Urbani: 0.6
  Binding of Control serum LUMC to linear peptides of the protein M of SARS-CoV Urbani: 0.4
  Binding of Control serum LUMC to looped peptides of the protein M of SARS-CoV Urbani: 0.5
[2]
  Binding of serum 1a to linear peptides of protein M of SARS-CoV Urbani: 0.6
  Binding of serum 1b to linear peptides of protein M of SARS-CoV Urbani: 0.4
  Binding of serum 2 to linear peptides of protein M of SARS-CoV Urbani: 0.4
  Binding of serum 6 to linear peptides of protein M of SARS-CoV Urbani: 0.2
  Binding of serum 37 to linear peptides of protein M of SARS-CoV Urbani: 0.4
  Binding of serum 62 to linear peptides of protein M of SARS-CoV Urbani: 0.4
  Binding of serum London to linear peptides of protein M of SARS-CoV Urbani: 0.3
  Binding of serum SARS-green to linear peptides of protein M of SARS-CoV Urbani: 0.4
  Binding of serum SARS-yellow to linear peptides of protein M of SARS-CoV Urbani: 0.2
  Recognition of the peptide by sera of SARS-CoV infected individuals, and form (linear, looped/cyclic) in which it is recognized: recognized in looped/cyclic form
[3]
  Rabbit serum linear peptides: 0.0
  Rabbit serum looped peptides: 0.2

## ILVRYNTRGNTYSTA
[1]
  Binding of Control Serum Blood-Bank to Looped peptides: 0.4
  Binding of Control serum Blood-bank to linear peptides: 0.7
  Binding of Control serum LUMC to linear peptides: 0.5
  Binding of Control serum LUMC to looped peptides: 0.6
[2]
  Binding of serum 1a to linear peptides of protein X5 of SARS-CoV Urbani: 0.7
  Binding of serum 1a to looped/cyclic peptides of protein X5 of SARS-CoV Urbani: 0.5
  Binding of serum 1b to linear peptides of protein X5 of SARS-CoV Urbani: 0.4
  Binding of serum 1b to looped/cyclic peptides of protein X5 of SARS-CoV Urbani: 0.3
  Binding of serum 2 to linear peptides of protein X5 of SARS-CoV Urbani: 0.6
  Binding of serum 2 to looped/cyclic peptides of protein X5 of SARS-CoV Urbani: 0.6
  Binding of serum 6 to linear peptides of protein X5 of SARS-CoV Urbani: 0.7
  Binding of serum 6 to looped/cyclic peptides of protein X5 of SARS-CoV Urbani: 0.6
  Binding of serum 37 to linear peptides of protein X5 of SARS-CoV Urbani: 0.6
  Binding of serum 37 to looped/cyclic peptides of protein X5 of SARS-CoV Urbani: 0.4
  Binding of serum 62 to linear peptides of protein X5 of SARS-CoV Urbani: 0.7
  Binding of serum 62 to looped/cyclic peptides of protein X5 of SARS-CoV Urbani: 0.8
  Binding of serum London to linear peptides of protein X5 of SARS-CoV Urbani: 0.6
  Binding of serum London to looped/cyclic peptides of protein X5 of SARS-CoV Urbani: 0.2
  Binding of serum SARS-green to linear peptides of protein X5 of SARS-CoV Urbani: 0.5
  Binding of serum SARS-green to looped/cyclic peptides of protein X5 of SARS-CoV Urbani: 0.3
  Binding of serum SARS-yellow to linear peptides of protein X5 of SARS-CoV Urbani: 0.2
  Binding of serum SARS-yellow to looped/cyclic peptides of protein X5 of SARS-CoV Urbani: 0.8
[3]
  Rabbit serum linear peptides: 0.9
  Rabbit serum looped peptides: 0.8

## IPLQASLPFGWLVIG
[1]
  Binding of Control Serum Blood-Bank to Looped peptides: 0.6
  Binding of Control serum Blood-bank to linear peptides: 0.7
  Binding of Control serum LUMC to linear peptides: 0.8
  Binding of Control serum LUMC to looped peptides: 0.6
[2]
  Binding of serum 1a to linear peptides of protein X1 of SARS-CoV Urbani: 0.8
  Binding of serum 1a to looped/cyclic peptide (PEPSCAN-ELISA): 0.6
  Binding of serum 1b to linear peptides of protein X1 of SARS-CoV Urbani: 0.6
  Binding of serum 1b to looped/cyclic peptide (PEPSCAN-ELISA): 0.4
  Binding of serum 2 to linear peptides of protein X1 of SARS-CoV Urbani: 0.6
  Binding of serum 2 to looped/cyclic peptide (PEPSCAN-ELISA): 0.4
  Binding of serum 6 to linear peptides of protein X1 of SARS-CoV Urbani: 0.5
  Binding of serum 6 to looped/cyclic peptide (PEPSCAN-ELISA): 0.3
  Binding of serum 37 to linear peptides of protein X1 of SARS-CoV Urbani: 0.7
  Binding of serum 37 to looped/cyclic peptide (PEPSCAN-ELISA): 0.5
  Binding of serum 62 to linear peptides of protein X1 of SARS-CoV Urbani: 0.6
  Binding of serum 62 to looped/cyclic peptide (PEPSCAN-ELISA): 0.6
  Binding of serum London to linear peptides of protein X1 of SARS-CoV Urbani: 0.3
  Binding of serum London to looped/cyclic peptide (PEPSCAN-ELISA): 0.2
  Binding of serum SARS-green to linear peptides of protein X1 of SARS-CoV Urbani: 0.4
  Binding of serum SARS-green to looped/cyclic peptide (PEPSCAN-ELISA): 0.3
  Binding of serum SARS-yellow to linear peptides of protein X1 of SARS-CoV Urbani: 0.5
  Binding of serum SARS-yellow to looped/cyclic peptide (PEPSCAN-ELISA): 0.3
[3]
  Binding of a rabbit serum to linear peptides: 0.1
  Binding of a rabbit serum to looped peptides: 0.5

## IPYNSVTDTIVVTEG
[1]
  Binding of Control Serum Blood-Bank to Looped peptides: 0.6
  Binding of Control serum Blood-bank to linear peptides: 0.4
  Binding of Control serum LUMC to linear peptides: 0.5
  Binding of Control serum LUMC to looped peptides: 0.4
[2]
  Binding of serum 1a to linear peptides of protein X1 of SARS-CoV Urbani: 0.7
  Binding of serum 1a to looped/cyclic peptides of protein X1 of SARS-CoV Urbani: 0.5
  Binding of serum 1b to linear peptides of protein X1 of SARS-CoV Urbani: 0.5
  Binding of serum 1b to looped/cyclic peptides of protein X1 of SARS-CoV Urbani: 0.4
  Binding of serum 2 to linear peptides of protein X1 of SARS-CoV Urbani: 0.5
  Binding of serum 2 to looped/cyclic peptides of protein X1 of SARS-CoV Urbani: 0.4
  Binding of serum 6 to linear peptides of protein X1 of SARS-CoV Urbani: 0.4
  Binding of serum 6 to looped/cyclic peptides of protein X1 of SARS-CoV Urbani: 0.3
  Binding of serum 37 to linear peptides of protein X1 of SARS-CoV Urbani: 0.6
  Binding of serum 37 to looped/cyclic peptides of protein X1 of SARS-CoV Urbani: 0.5
  Binding of serum 62 to linear peptides of protein X1 of SARS-CoV Urbani: 0.4
  Binding of serum 62 to looped/cyclic peptides of protein X1 of SARS-CoV Urbani: 0.5
  Binding of serum London to linear peptides of protein X1 of SARS-CoV Urbani: 0.2
  Binding of serum London to looped/cyclic peptides of protein X1 of SARS-CoV Urbani: 0.2
  Binding of serum SARS-green to linear peptides of protein X1 of SARS-CoV Urbani: 0.3
  Binding of serum SARS-green to looped/cyclic peptides of protein X1 of SARS-CoV Urbani: 0.3
  Binding of serum SARS-yellow to linear peptides of protein X1 of SARS-CoV Urbani: 0.4
  Binding of serum SARS-yellow to looped/cyclic peptides of protein X1 of SARS-CoV Urbani: 0.2
[3]
  Binding of a rabbit serum to linear peptides: 0.1
  Binding of a rabbit serum to looped peptides: 0.3

From US20070128217A1 (priority 2003, published 2007)
